Measured values published in article PMC8610590 (Journal of Virology, 2021).
Like-named read-outs stand apart in the source and are kept apart here.

What was measured:
[1] = test system: pseudotyped lentiviral particles expressing Spike glycoprotein of SARS-CoV-2; assay: microbe, parasite or virus in culture; type: cell-based
[2] = test system: SARS-CoV-2; type: cell-based
[3] = test system: SARS-CoV-2 isolate USA-WI1/2020; assay: Antiviral activity against live SARS-CoV-2 in UNCN1T cells; type: cell-based; conditions: for antiviral efficacy against live SARS-CoV-2 (in words): UNCN1T cells, compared to DMSO vehicle control, data not shown
[4] = MTT cell viability assay, Vero-STAT1 knockout; type: cell-based; conditions: African green monkey
[5] = target: ACE2: SARS-CoV-2 Spike RBD (UniProt P0DTC2+Q9BYF1); assay: ACE2: SARS-CoV-2 Spike RBD inhibitor screening assay; type: binding, human ACE2 / SARS-CoV-2
[6] = test system: SARS-CoV-2 isolate USA-WI1/2020; assay: microbe, parasite or virus in culture; type: cell-based
[7] = test system: SARS-CoV-2 isolate USA-WI1/2020; type: cell-based
[8] = Severe acute respiratory syndrome coronavirus 2, read-out: IC50, inhibition of SARS-CoV-2 replication
[9] = read-out: IC50, inhibition of SARS-CoV-2 replication

Row | Structure (SMILES) | pseudotype viral entry inhibition (in words) [1] | SARS-CoV-2 infection compared with vehicle controls (in words) [2] | CC50 at 72 h [4] [nM] | IC50 [5] [nM] | antiviral efficacy against live SARS-CoV-2 (in words) [3] | other results
1 | CN1C(=O)c2ccccc2[S+]([O-])c2cc([N+](=O)[O-])ccc2S1(=O)=O (stereo not drawn) [MU-UNMC-1, 6-methyl-2-nitrodibenzo[d,g][1,6,2]dithiazocin-7(6H)-one 5,5,12-trioxide] | low level of viral entry inhibition with a slight increase at higher concentrations | no significant difference | 6210 | < 250 |  | IC50 [3, 8]: 670 nM; IC50 [3, 9]: 1160 nM; IC50 [6, 8]: 5350 nM; IC50 [6, 9]: 2940 nM
2 | O=C1Nc2cc(C(F)(F)F)ccc2Oc2ccsc21 [MU-UNMC-2, 7-(trifluoromethyl) benzo[b]thieno[2,3-f][1,4]oxazepin-10(9H)-one] | significant and robust viral entry inhibition across a broad concentration range | no significant difference | 7130 |  |  | IC50 ([1]; Severe acute respiratory syndrome coronavirus 2, 48 h, read-out: IC50, inhibition of entry of pseudotyped lentiviral particles): 840 nM; reduction in dosages in combination ([7]; RDV/MU-UNMC-2 combination, human bronchial epithelial cell line): 28.3 fold
3 | CCn1c(SCC(=O)N2CCCc3ccccc32)nnc1-c1cccs1 [MU-UNMC-6, 1-(3,4-dihydroquinolin-1(2H)-yl)-2-((4-ethyl-5-(thiophen-2-yl)-4H-1,2,4-triazol-3-yl)thio) ethanone] | failed to prevent the pseudovirus entry |  |  | 1910 | did not see any reduction in viral replication kinetics | 
4 | OC(CNCCNc1ncccc1C(F)(F)F)Cn1ccc2ccccc21 (stereo not drawn) [MU-UNMC-7, 1-(1H-indol-1-yl)-3-((2-((3-(trifluoromethyl)pyridin-2-yl)amino)ethyl)amino)propan-2-ol] | failed to prevent the pseudovirus entry |  |  | > 5000 | did not see any reduction in viral replication kinetics | 
5 | CN(C)/C=C1\N=C(c2cccnc2Oc2ccc(Cl)cc2)OC1=O [MU-UNMC-8, (Z)-2-(2-(4-chlorophenoxy)pyridin-3-yl)-4-((dimethylamino)methylene)oxazol-5(4H)-one] | failed to prevent the pseudovirus entry |  |  | > 5000 | did not see any reduction in viral replication kinetics | 
6 | CCC(CC)COC(=O)[C@H](C)N[P@](=O)(OC[C@H]1O[C@@](C#N)(c2ccc3c(N)ncnn23)[C@H](O)[C@@H]1O)Oc1ccccc1 [RDV, remdesivir] |  |  |  |  |  | reduction in dosages in combination [7]: 2.3 fold; dose reduction index (DRI) ([7]; RDV/MU-UNMC-2 combination, UNCN1T cells, CompuSyn): 2.33
